According to US20130090303A1, “Agonists of PY2Y Receptor as a Treatment for Aortic Stenosis and Cardiovascular Calcification” (UNIVERSITE LAVAL, priority 2011, published 2013):

Key:
Runx2, osteocalcin = assay: Real-time PCR expression of Runx2 and osteocalcin in isolated VICs; type: cell-based, Human; details: q-PCR normalized to HPRT, FIG. 2C
Experimental: RNA was also extracted from AS valves and cells during in vitro experiments. Total RNA was isolated with RNeasy micro kit from Qiagen (Qiagen, Mississauga, Ont, Canada). The RNA extraction protocol was performed according to manufacturer's instructions using 100 mg of tissue. The quality of total RNA was monitored by capillary electrophoresis (Experion, Biorad, Mississauga, Ont, Canada). Four (4) μg of RNA was reverse transcribed using the Quantitec Reverse Transcription Kit from Qiagen. Quantitative real-time PCR (q-PCR) was performed with Quantitec SYBR Green PCR kit from Qiagen in the Rotor-Gene 6000 system (Corbett Robotics Inc, San Francisco, Calif., USA). The following primers were obtained from (Invitrogen, Burlington, Ont, Canada): P2Y2, Runx2, osteocalcin. The expression of hypoxanthine-guanine phosphoribosyltransferase (HPRT) (Invitrogen, Burlington, On, Canada) as a reference gene was chosen to normalize the results.
(§1) Human valve interstitial cells (VICs) were isolated by collagenase digestion. To provoke calcification, cells were incubated for 7 days with a pro-calcifying medium containing: DMEM+5% FBS, 10^−7 M insulin, 50 μg /ml ascorbic acid and NaH2PO4 at 2 mM.

[1] = tested on: valve interstitial cells (VICs); assay: In vitro calcification of isolated valve interstitial cells (calcium by Arsenazo III method); type: cell-based; details: isolated human VICs, pro-calcifying medium 7 days; FIG. 2A/2B
Experimental: In isolated cells, calcium was measured by the Arsenazo III method (Côte N, et al. J Mol Cell Cardiol 2012;52:1191-202) and results reported as percent changes.
as §1

Structure (SMILES): O=c1ccn([C@@H]2O[C@H](COP(=O)(O)OP(=O)(O)OP(=O)(O)O)[C@@H](O)[C@H]2O)c(=S)[nH]1 [2-thioUTP]
- expression of osteocalcin (Runx2, osteocalcin): decreased the expression
- expression of the bone transcription factor, Runx2 (Runx2, osteocalcin): decreased the expression
- calcification of isolated VICs [1]: reduced significantly calcification

Structure (SMILES): Cc1ccc(C(=O)Nc2ccc(S(=O)(=O)O)c3cc(S(=O)(=O)O)cc(S(=O)(=O)O)c23)cc1NC(=O)c1cccc(NC(=O)Nc2cccc(C(=O)Nc3cc(C(=O)Nc4ccc(S(=O)(=O)O)c5cc(S(=O)(=O)O)cc(S(=O)(=O)O)c45)ccc3C)c2)c1 [suramin]
- calcification of isolated VICs [1]: increased calcification
